Measured values published in ChEMBL document CHEMBL1201862, “PubChem BioAssay data set” (2004).
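Results reflect a 48-hour exposure of cells in 96-well plates to compound at five concentrations. GI50 is the concentration that inhibits growth by half.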 Active and inactive are the calls of the source. Rule as the data show it: active = GI50 up to about 1.1 µM and inactive = higher.

What was measured:
Experiment in all cases: DTP human tumour cell line panel, 48 h
MOLT-4 = system: MOLT-4
UACC-62 = system: UACC-62
IGROV-1 = system: IGROV-1
Malme-3M = system: Malme-3M
OVCAR-3 = system: OVCAR-3
U-251 = system: U-251
OVCAR-5 = system: OVCAR-5
HCT-15 = system: HCT-15
RXF 393 = system: RXF 393
SR = system: SR
COLO 205 = system: COLO 205
HOP-92 = system: HOP-92
HCT-116 = system: HCT-116
CAKI-1 = system: CAKI-1
Hs-578T = system: Hs-578T
MDA-MB-435 = system: MDA-MB-435
MCF7 = system: MCF7
T47D = system: T47D
PC-3 = system: PC-3

Measured: GI50

COC(=O)CCC1CCc2c(OC)ccc(OC)c2C1=O (stereo not given)
inactive: MOLT-4 > 100 µM | UACC-62 > 100 µM | IGROV-1 > 100 µM | Malme-3M > 100 µM | OVCAR-3 > 100 µM | U-251 > 100 µM | OVCAR-5 > 100 µM | RXF 393 > 100 µM | SR > 100 µM | COLO 205 > 100 µM
> 100 µM: HCT-15

Cc1nc2ccccc2c(=O)n1NC(=S)Nc1cccc(Cl)c1
inactive: MOLT-4 > 100 µM | UACC-62 > 100 µM | HOP-92 > 100 µM | IGROV-1 > 100 µM | Malme-3M > 100 µM | U-251 > 100 µM | OVCAR-5 > 100 µM | RXF 393 > 100 µM | HCT-116 > 100 µM | SR 31.8 µM | COLO 205 > 100 µM | CAKI-1 > 100 µM
> 100 µM: HCT-15

CCOC(=O)c1cn(C)nc1N/C(C)=C\C(=O)c1ccccc1
> 100 µM: HCT-15
inactive: MOLT-4 > 100 µM | UACC-62 > 100 µM | Hs-578T > 100 µM | HOP-92 > 100 µM | IGROV-1 > 100 µM | Malme-3M > 100 µM | OVCAR-3 > 100 µM | U-251 > 100 µM | OVCAR-5 > 100 µM | MDA-MB-435 > 100 µM | MCF7 > 100 µM | T47D > 100 µM | SR > 100 µM | COLO 205 > 100 µM | PC-3 > 100 µM | CAKI-1 > 100 µM

[N-]=[N+]=NC1C2CC3CC(C2)CC1C3 (stereo not given)
inactive: MOLT-4 > 100 µM | UACC-62 > 100 µM | HOP-92 > 100 µM | IGROV-1 > 100 µM | Malme-3M > 100 µM | OVCAR-3 > 100 µM | U-251 > 100 µM | OVCAR-5 > 100 µM | HCT-116 > 100 µM | SR > 100 µM | COLO 205 > 100 µM | CAKI-1 > 100 µM

O=C(Nc1ccc(S(=O)(=O)N[C@@H](C(=O)O)c2ccccc2)cc1)c1ccc(F)cc1
> 100 µM: HCT-15
inactive: MOLT-4 > 100 µM | UACC-62 > 100 µM | HOP-92 > 100 µM | IGROV-1 > 100 µM | Malme-3M > 100 µM | OVCAR-3 > 100 µM | U-251 > 100 µM | OVCAR-5 > 100 µM | RXF 393 > 100 µM | COLO 205 > 100 µM | CAKI-1 > 100 µM

COc1cc([C@@H]2c3cc4c(cc3[C@@H](NC(=O)c3cccc([N+](=O)[O-])c3)C3COC(=O)[C@@H]32)OCO4)cc(OC)c1O (stereo not given in full)
active: MOLT-4 0.0145 µM | UACC-62 0.499 µM | HOP-92 0.63 µM | Malme-3M 0.543 µM | U-251 0.166 µM | CAKI-1 0.237 µM
inactive: IGROV-1 3.85 µM | OVCAR-3 3.34 µM | OVCAR-5 2.23 µM | RXF 393 2.34 µM | HCT-116 1.5 µM | COLO 205 4.66 µM
1.28 µM: HCT-15

CN(C)C(=O)C(F)(F)C(c1ccccc1Br)C1C(=O)N(C)C(=O)N(C)C1=O (stereo not given)
> 100 µM: HCT-15
inactive: UACC-62 > 100 µM | HOP-92 > 100 µM | Malme-3M > 100 µM | OVCAR-3 > 100 µM | U-251 > 100 µM | OVCAR-5 > 100 µM | MDA-MB-435 > 100 µM | MCF7 > 100 µM | RXF 393 > 100 µM | T47D > 100 µM | HCT-116 > 100 µM | COLO 205 > 100 µM | PC-3 > 100 µM | CAKI-1 > 100 µM

COc1ccc(C(=O)C(c2ccc(OC)cc2)C2OC(=O)C(Cl)=C2Cl)cc1 (stereo not given)
> 100 µM: HCT-15
inactive: MOLT-4 > 100 µM | UACC-62 > 100 µM | HOP-92 > 100 µM | IGROV-1 > 100 µM | Malme-3M > 100 µM | OVCAR-3 > 100 µM | U-251 > 100 µM | OVCAR-5 > 100 µM | RXF 393 > 100 µM | HCT-116 > 100 µM | SR > 100 µM | CAKI-1 > 100 µM

O/N=C/c1cc2c(cc1Br)OCO2
inactive: MOLT-4 > 100 µM | UACC-62 > 100 µM | IGROV-1 > 100 µM | Malme-3M > 100 µM | OVCAR-3 > 100 µM | U-251 > 100 µM | OVCAR-5 > 100 µM | HCT-116 > 100 µM | SR > 100 µM | COLO 205 > 100 µM | CAKI-1 > 100 µM
> 100 µM: HCT-15

OCC(O)C(OC1OC(CO)C(O)C(O)C1O)c1nn(-c2ccc(Cl)cc2)c2nc3cc(Cl)c(Cl)cc3nc12 (stereo not given)
inactive: MOLT-4 > 100 µM | UACC-62 > 100 µM | Malme-3M > 100 µM | OVCAR-3 > 100 µM | U-251 > 100 µM | OVCAR-5 > 100 µM | RXF 393 > 100 µM | HCT-116 > 100 µM | SR > 100 µM
> 100 µM: HCT-15

C[C@]12CCC(=O)C=C1CC[C@@H]1C2CC[C@@]2(C)C1CC[C@@H]2OC(=O)C12OC1CCC2=O (stereo not given in full)
inactive: MOLT-4 10.1 µM | UACC-62 18.3 µM | HOP-92 19.8 µM | IGROV-1 10.8 µM | Malme-3M 19.1 µM | OVCAR-3 18.9 µM | U-251 15.1 µM | OVCAR-5 17.9 µM | RXF 393 5.16 µM | HCT-116 15.7 µM | SR 17.1 µM | COLO 205 17.9 µM
17 µM: HCT-15

Clc1ccc(OCCSCCCCCCCCCCSCCOc2ccc(Cl)cc2)cc1
> 100 µM: HCT-15
inactive: MOLT-4 > 100 µM | UACC-62 > 100 µM | HOP-92 > 100 µM | IGROV-1 > 100 µM | Malme-3M > 100 µM | OVCAR-3 > 100 µM | U-251 > 100 µM | OVCAR-5 > 100 µM | RXF 393 > 100 µM | COLO 205 > 100 µM | CAKI-1 > 100 µM

CN(C)c1ccc(-c2[nH]c(=O)c3ccccc3[n+]2C)cc1
inactive: MOLT-4 51.9 µM | UACC-62 47.5 µM | Hs-578T > 100 µM | HOP-92 60.7 µM | IGROV-1 > 100 µM | Malme-3M 47.6 µM | U-251 > 100 µM | OVCAR-5 44.2 µM | MDA-MB-435 63.8 µM | MCF7 46.7 µM | RXF 393 > 100 µM | T47D 41.3 µM | HCT-116 93.8 µM | SR 49.4 µM | COLO 205 62.2 µM
> 100 µM: HCT-15

COC(=O)C12C3C4C1C1C2C3C41C(=O)OC(C)(C)C (stereo not given)
> 100 µM: HCT-15
inactive: MOLT-4 > 100 µM | UACC-62 > 100 µM | HOP-92 > 100 µM | IGROV-1 > 100 µM | Malme-3M > 100 µM | OVCAR-3 > 100 µM | U-251 > 100 µM | OVCAR-5 > 100 µM | RXF 393 > 100 µM | HCT-116 26.7 µM | SR 19.2 µM | COLO 205 > 64 µM | CAKI-1 > 100 µM

COC(=O)C(C(=O)C(=O)Nc1cccc(O)c1)c1nc2ccc(Cl)cc2nc1O (stereo not given)
inactive: MOLT-4 > 100 µM | UACC-62 > 100 µM | HOP-92 59 µM | IGROV-1 > 100 µM | Malme-3M > 100 µM | OVCAR-3 > 100 µM | U-251 > 100 µM | OVCAR-5 > 100 µM | RXF 393 74.3 µM | HCT-116 > 100 µM | COLO 205 > 100 µM | CAKI-1 > 100 µM
> 100 µM: HCT-15

Cc1cc2c(=O)cc(-c3ccc(C(F)(F)F)cc3)oc2c(C(=O)O)c1C
inactive: MOLT-4 > 100 µM | UACC-62 > 100 µM | IGROV-1 > 100 µM | Malme-3M > 100 µM | OVCAR-3 > 100 µM | U-251 > 100 µM | OVCAR-5 > 100 µM | RXF 393 > 100 µM | HCT-116 > 100 µM | COLO 205 > 100 µM | CAKI-1 > 100 µM
> 100 µM: HCT-15

O=S(=O)(O)C1=C2Sc3ccccc3N=C2c2ccccc2C1
13.6 µM: HCT-15
inactive: MOLT-4 4.88 µM | UACC-62 13.2 µM | HOP-92 10.3 µM | IGROV-1 14.3 µM | Malme-3M 15.8 µM | OVCAR-3 17.5 µM | U-251 12.5 µM | OVCAR-5 20.2 µM | RXF 393 19.5 µM | HCT-116 15.2 µM | SR 3.14 µM | COLO 205 16.5 µM | CAKI-1 20.1 µM

c1ccc(C2[C@@H]3CCCc4ccccc4C3=NN2c2ccccc2)cc1 (stereo not given in full)
52.5 µM: HCT-15
inactive: MOLT-4 48.6 µM | IGROV-1 > 100 µM | Malme-3M > 100 µM | OVCAR-3 31.8 µM | U-251 > 100 µM | OVCAR-5 > 100 µM | RXF 393 92.3 µM | HCT-116 42 µM | SR 91.6 µM | COLO 205 > 100 µM

Oc1cc(-c2ccccn2)nc2ccc(Cl)cc12
inactive: MOLT-4 53.7 µM | UACC-62 28.7 µM | HOP-92 > 100 µM | IGROV-1 64.1 µM | Malme-3M 21.7 µM | OVCAR-5 > 100 µM | SR > 100 µM | COLO 205 36.6 µM

COc1cc2c(cc1OCCCCCOc1cc3c(cc1OC)C(=O)N1CCC[C@H]1C(=O)N3)N=C[C@@H]1CCCN1C2=O
active: MOLT-4 < 0.01 µM | UACC-62 0.0736 µM | Hs-578T 0.258 µM | HOP-92 0.0299 µM | IGROV-1 0.132 µM | Malme-3M 0.161 µM | OVCAR-3 0.165 µM | U-251 0.0225 µM | OVCAR-5 0.957 µM | MDA-MB-435 0.124 µM | MCF7 0.0229 µM | RXF 393 0.175 µM | T47D 0.0336 µM | HCT-116 0.193 µM | SR < 0.01 µM | COLO 205 0.0177 µM | PC-3 0.256 µM | CAKI-1 0.839 µM
3.08 µM: HCT-15
